We go through 17 molecules from PMC6271697, “Anticancer Activities of Polyynes from the Root Bark of Oplopanax horridus and Their Acetylated Derivatives” (Molecules, 2014).

What all share (format): cell-based, human
One assay concerns A549 cells. The assay is described as follows: MTT cell viability assay, A549 cells. The note with it: for IC50: read-out: IC50 A549; for antiproliferative effect on A549 cells (in words): concentrations 1–300 µM. As for the experimental part: (§1) The human breast cancer cell lines MCF-7, MDA-MB-231, human hepatocellular liver cell line HepG2 and human lung carcinoma epithelial cells A549 were purchased from American Type Culture Collection (ATCC, Manassas, VA, USA). Normal human hepatic LO2 cells were obtained from the Institute of Cell Biology, Academic Sinica (Shanghai, China). The cells were grown in an atmosphere of 5% CO2 at 37 °C in RPMI 1640 medium supplemented with 10% fetal bovine serum, 100 U/mL penicillin and […] streptomycin.
(§2) The viability of cells was measured by a colorimetric MTT assay. Briefly, 1 × 10^4 cells/well in 96-well microplates were exposed to different concentration of polyynes and their acetylated derivatives respectively for 24 h incubation, following addition of 20 μL MTT solution (4 mg/mL) to each well for another 4 h incubation at 37 °C. Finally, the medium was removed and replaced with 100 μL dimethyl sulfoxide which was added to dissolve the dye crystal presented in cells. The absorbance was recorded at 570 nm using a microplate reader (1420 Multilabel counter victor^3, Perkin-Elmer, Waltham, MA, USA). The results were expressed as ratio of absorbance between treatments and control cells (solvent vehicle set at 100%). Four replicate wells were tested per assay which was repeated three times.
Background: Tetrazolium assays rely on reduction of a dye to a coloured formazan, in cell work by metabolically active cells.

A further assay relates to MCF-7 cells. The assay can be described thus: MTT cell viability assay, MCF-7 cells. The note with it: for IC50: read-out: IC50 MCF-7; for antiproliferative effect on MCF-7 cells (in words): concentrations 1–300 µM. The protocol: as §1, §2
In a further assay the test system is HepG2 cells. The assay is described as follows: MTT cell viability assay, HepG2 cells. The note with it: for IC50: read-out: IC50 HepG2; for antiproliferative effect on HepG2 cells (in words): concentrations 1–300 µM. As for the experimental part: as §1, §2
The subject of a further assay is LO2 cells. The assay can be described thus: MTT cell viability assay, normal hepatic LO2 cells. The settings on record: read-out: IC50 LO2. The protocol: as §1, §2
The next assay relates to MDA-MB-231 cells. The assay can be described thus: MTT cell viability assay, MDA-MB-231 cells. The settings on record: for IC50: read-out: IC50 MDA-MB-231. As for the experimental part: as §1, §2
Setting [1] is: Homo sapiens, A549, MTT, 24 h incubation.
Setting [2] is: Homo sapiens, MCF7, MTT, 24 h incubation.
[3] abbreviates: Homo sapiens, HepG2, MTT, 24 h incubation.
Setting [4] is: L02, normal human hepatic cells, MTT, 24 h incubation.
The mark [5] stands for this setting: Homo sapiens, MDA-MB-231, MTT, 24 h incubation.
Setting [6] is: normal human hepatic cells, MTT, 24 h incubation.

Values joined by “and” are separate entries in the source; they are usually repeats but may differ in a detail not shown here. Equal entries are not always repeated. Where two headings read alike, the source gives them in different places.

As a reminder, the IC50 is the concentration that inhibits the measured activity by half.

Regarding `C=C[C@H](O)C#CC#C[C@@H](O)/C=C\CCCCCCC` [OH-1, (3S,8S,Z)-Heptadeca-1,9-dien-4,6-diyne-3,8-diol], the IC50 in the assay on A549 cells (Homo sapiens, A549, 24 h) was determined as 23.5 ± 4.1 µM; in the assay with MCF-7 cells (Homo sapiens, MCF7, 24 h), 15.3 ± 0.3 µM; in the assay on HepG2 cells (Homo sapiens, HepG2, 24 h), 7.7 ± 1.3 µM; in the assay on LO2 cells (Homo sapiens, L02, 24 h), 8.7 ± 0.5 µM; in the assay with MDA-MB-231 cells (Homo sapiens, MDA-MB-231, 24 h) it was 4.7 ± 1.4 µM. Also, the inhibition at 60 µM in the assay with A549 cells (Homo sapiens, A549, read-out: A549 cell growth inhibited) was 95.6%.
Regarding `C=C[C@@H](C#CC#C[C@@H](O)/C=C\CCCCCCCCOC(C)=O)OC(C)=O` [OHR-9], the IC50 in the assay on A549 cells (setting [1]) turned out to be 83.1 ± 8.4 µM; with MCF-7 cells (setting [2]), 81.3 ± 1 µM; in the assay with HepG2 cells (setting [3]), 59.9 ± 3 µM; with LO2 cells (setting [4]), 86.2 ± 11.3 µM; in the assay on MDA-MB-231 cells (setting [5]) it was 52 ± 7.5 µM.
The matching figures for `CC[C@H](O)C#CC#C[C@H](/C=C\CCCCCCCCOC(C)=O)OC(C)=O` [OHR-12, (11S,16S,Z)-16-Hydroxyoctadeca-9-en-12,14-diyne-1,11-diyl diacetate]: 100 to 300 µM, 90.7 ± 0.3 µM, 100 to 300 µM, 100 to 300 µM and 77.7 ± 1.9 µM.
“(3S,8S,Z)-3,18-Dihydroxyoctadeca-1,9-dien-4,6-diyn-8-yl acetate [OHR-15]”: the IC50 was greater than 300 µM with A549 cells (MTT, 24 h incubation); greater than 300 µM in the assay on MCF-7 cells (MTT, 24 h incubation); greater than 300 µM with HepG2 cells (MTT, 24 h incubation); greater than 300 µM with LO2 cells (setting [6]); 100 to 300 µM with MDA-MB-231 cells (MTT, 24 h incubation). Further, the “antiproliferative effect on A549 cells (in words)” value in the assay on A549 cells was “no cytotoxicity”. Also, the “antiproliferative effect on MCF-7 cells (in words)” value in the assay with MCF-7 cells is “no cytotoxicity”. In the assay with HepG2 cells, the “antiproliferative effect on HepG2 cells (in words)” value is reported as “no cytotoxicity”.
For the molecule “(11S,16S,Z)-11-Hydroxyoctadeca-9-en-12,14-diyne-1,16-diyl diacetate [OHR-11]”, the half-maximal inhibitory concentration (IC50) with A549 cells (MTT, 24 h incubation) worked out at 98.2 ± 17.5 µM; in the assay with MCF-7 cells (MTT, 24 h incubation), 78.1 ± 3.4 µM; with HepG2 cells (MTT, 24 h incubation), 77 ± 9.5 µM; in the assay on LO2 cells (setting [6]) it was 93.1 ± 14 µM; in the assay on MDA-MB-231 cells (MTT, 24 h incubation), 51.5 ± 8.4 µM.
“(11S,16S,Z)-16-Hydroxyoctadeca-9,17-dien-12,14-diyne-1,11-diyl diacetate [OHR-10]”: the IC50 was 101 ± 7.3 µM with A549 cells (MTT, 24 h incubation); 94.3 ± 6.1 µM in the assay with MCF-7 cells (MTT, 24 h incubation); 78.4 ± 6.5 µM in the assay on HepG2 cells (MTT, 24 h incubation); 100 to 300 µM in the assay on LO2 cells (setting [6]); 56.7 ± 6.9 µM with MDA-MB-231 cells (MTT, 24 h incubation).
For the molecule “(3S,8S,Z)-18-Hydroxyoctadeca-9-en-4,6-diyne-3,8-diyl diacetate [OHR-13]”, the IC50 was greater than 300 µM in the assay with A549 cells (MTT, 24 h incubation); greater than 300 µM in the assay on MCF-7 cells (MTT, 24 h incubation); greater than 300 µM in the assay on HepG2 cells (MTT, 24 h incubation); greater than 300 µM in the assay on LO2 cells (setting [6]); 137 ± 28.4 µM in the assay on MDA-MB-231 cells (MTT, 24 h incubation). The “antiproliferative effect on A549 cells (in words)” value in the assay with A549 cells is listed as “no cytotoxicity”. The “antiproliferative effect on MCF-7 cells (in words)” value in the assay on MCF-7 cells was “no cytotoxicity”. For the same molecule, in the assay on HepG2 cells, the “antiproliferative effect on HepG2 cells (in words)” value was “no cytotoxicity”. Besides, the “concentration showing some antiproliferative effects on MDA-MB-231 cells” value in the assay with MDA-MB-231 cells is on record as “about 150 µM”.
Take “(3S,8S,Z)-8-Hydroxyheptadeca-1,9-dien-4,6-diyn-3-yl acetate [OHR-6]”: the IC50 with HepG2 cells (MTT, 24 h incubation) turned out to be 38.5 ± 6.2 µM; in the assay with LO2 cells (setting [6]), 46.1 ± 11.7 µM; in the assay on MDA-MB-231 cells (MTT, 24 h incubation), 36.2 ± 13.4 µM.
In the case of `CCCCCCC/C=C\[C@H](O)C#CC#C[C@@H](O)CC` [OH-2, (3S,8S,Z)-Heptadeca-9-en-4,6-diyne-3,8-diol], the IC50 in the assay with A549 cells (setting [1]) was 44.1 ± 9.4 µM; in the assay on MCF-7 cells (setting [2]) it was 27.5 ± 2.2 µM; in the assay on HepG2 cells (setting [3]), 38.4 ± 7.5 µM; with LO2 cells (setting [4]) it was 30.2 ± 4.8 µM; in the assay on MDA-MB-231 cells (setting [5]) it was 14.7 ± 2.7 µM.
For “(3S,8S,Z)-8-Hydroxyheptadeca-9-en-4,6-diyn-3-yl acetate [OHR-4]”, the IC50 with A549 cells (MTT, 24 h incubation) is 31.4 µM and 33.3 µM; in the assay with MCF-7 cells (MTT, 24 h incubation) it was 28 ± 2.9 µM; in the assay on HepG2 cells (MTT, 24 h incubation) it was 59.5 ± 3.1 µM; in the assay on LO2 cells (setting [6]), 34.3 ± 1.5 µM; with MDA-MB-231 cells (MTT, 24 h incubation), 23.4 ± 3.2 µM.
Take `C=C[C@H](O)C#CC#C[C@@H](O)/C=C\CCCCCCCCOC(C)=O` [OH-3, (11S,16S,Z)-11,16-Dihydroxyoctadeca-9,17-dien-12,14-diynyl acetate]: the concentration for half-maximal inhibition (IC50) in the assay with A549 cells (setting [1]) stood at 98 ± 6.3 µM; in the assay on MCF-7 cells (setting [2]), 93.6 ± 6.1 µM; with HepG2 cells (setting [3]), 47.2 ± 5.9 µM; in the assay on LO2 cells (setting [4]), 90.3 ± 6.4 µM; in the assay with MDA-MB-231 cells (setting [5]) it was 16.5 ± 2.2 µM.
Consider `CC[C@H](O)C#CC#C[C@@H](O)/C=C\CCCCCCCCO` [OH-6, (11S,16S,Z)-Octadeca-9-en-12,14-diyne-1,11,16-triol], for which the concentration for half-maximal inhibition (IC50) turned out to be 85.7 ± 13.2 µM with A549 cells (setting [1]); 106 ± 13.2 µM in the assay on MCF-7 cells (setting [2]); 45.3 ± 6.3 µM in the assay with HepG2 cells (setting [3]); 90.8 ± 4 µM in the assay on LO2 cells (setting [4]); 55.7 ± 11.8 µM in the assay on MDA-MB-231 cells (setting [5]).
The matching figures for `CC[C@H](O)C#CC#C[C@@H](O)/C=C\CCCCCCCCOC(C)=O` [OH-4, (11S,16S,Z)-11,16-Dihydroxyoctadeca-9-en-12,14-diynyl acetate]: 109.9 ± 0.8 µM, 100 ± 7 µM, 69.1 ± 1.8 µM, 91.9 ± 13.4 µM and 87.8 ± 7.9 µM.
As to “(11S,16S,Z)-Octadeca-9,17-dien-12,14-diyne-1,11,16-triyl triacetate [OHR-8]”, the IC50 with A549 cells (MTT, 24 h incubation) is greater than 300 µM; in the assay with MCF-7 cells (MTT, 24 h incubation), greater than 300 µM; in the assay on HepG2 cells (MTT, 24 h incubation) it was 100 to 300 µM; in the assay on LO2 cells (setting [6]) it was greater than 300 µM; in the assay on MDA-MB-231 cells (MTT, 24 h incubation), 19.6 ± 6.9 µM.
With `C=C[C@H](O)C#CC#C[C@@H](O)/C=C\CCCCCCCCO` [OH-5, (11S,16S,Z)-Octadeca-9,17-dien-12,14-diyne-1,11,16-triol], the IC50 in the assay with A549 cells (setting [1]) was 150 to 300 µM; in the assay on MCF-7 cells (setting [2]), 94.4 ± 7.3 µM; in the assay with HepG2 cells (setting [3]) it was 48.3 ± 5.9 µM; in the assay on LO2 cells (setting [4]), 91 ± 9.5 µM; in the assay on MDA-MB-231 cells (setting [5]), 49 ± 10.9 µM.
As to “(11S,16S,Z)-Octadeca-9-en-12,14-diyne-1,11,16-triyl triacetate [OHR-7]”, the half-maximal inhibitory concentration (IC50) in the assay on A549 cells (MTT, 24 h incubation) is greater than 300 µM; in the assay on MCF-7 cells (MTT, 24 h incubation), greater than 300 µM; in the assay on HepG2 cells (MTT, 24 h incubation), greater than 300 µM; with LO2 cells (setting [6]) it was greater than 300 µM; in the assay on MDA-MB-231 cells (MTT, 24 h incubation) it was greater than 300 µM.
Regarding “(3S,8S,Z)-18-Hydroxyoctadeca-1,9-dien-4,6-diyne-3,8-diyl diacetate [OHR-14]”, the IC50 in the assay with A549 cells (MTT, 24 h incubation) was greater than 300 µM; with MCF-7 cells (MTT, 24 h incubation) it was greater than 300 µM; in the assay on HepG2 cells (MTT, 24 h incubation), 150 to 300 µM; in the assay with LO2 cells (setting [6]), greater than 300 µM; in the assay on MDA-MB-231 cells (MTT, 24 h incubation) it was 156 ± 35.5 µM. Further, the “antiproliferative effect on A549 cells (in words)” value in the assay with A549 cells is recorded as “no cytotoxicity”. Besides, the “antiproliferative effect on MCF-7 cells (in words)” value in the assay on MCF-7 cells is recorded as “no cytotoxicity”. The “antiproliferative effect on HepG2 cells (in words)” value with HepG2 cells is reported as “no cytotoxicity”. The “concentration showing some antiproliferative effects on MDA-MB-231 cells” value in the assay on MDA-MB-231 cells is reported as “about 150 µM”.
